Results: PMC5368959, “Uricosuric targets of tranilast” (Pharmacology Research & Perspectives, 2017)
pIC50: −log10 of the molar value. Several values for one entry are separate records, joined by “and”; a condition that tells them apart may be missing. Equal entries are not always repeated. Where two headings read alike, the source gives them in different places.

Experiments:
Format in all cases: cell-based
[1] = target: T1, OAT3 (Mus musculus, UniProt O88909); assay: [14C]-urate uptake by OAT3-expressing Xenopus oocytes
T1 sequence (O88909 1-537): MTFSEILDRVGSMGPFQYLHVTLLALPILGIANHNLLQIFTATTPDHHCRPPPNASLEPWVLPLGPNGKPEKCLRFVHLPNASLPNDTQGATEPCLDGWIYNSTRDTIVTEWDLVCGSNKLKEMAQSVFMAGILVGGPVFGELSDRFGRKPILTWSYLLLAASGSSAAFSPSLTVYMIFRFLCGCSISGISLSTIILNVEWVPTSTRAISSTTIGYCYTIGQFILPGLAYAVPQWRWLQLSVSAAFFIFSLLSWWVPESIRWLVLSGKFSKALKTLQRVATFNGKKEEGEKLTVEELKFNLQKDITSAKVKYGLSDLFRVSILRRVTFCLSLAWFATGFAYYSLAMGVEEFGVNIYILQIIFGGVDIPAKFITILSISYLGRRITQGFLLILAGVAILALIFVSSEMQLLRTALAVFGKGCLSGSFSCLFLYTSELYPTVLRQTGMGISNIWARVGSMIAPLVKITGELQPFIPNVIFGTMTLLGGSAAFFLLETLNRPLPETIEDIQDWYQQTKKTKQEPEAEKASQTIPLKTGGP
Experimental: (§1) For uptake experiments, oocytes were washed four times with ND96 medium (pH 7.4) without pyruvate and gentamycin.
The uptake of [^14C]‐urate (40 μmol/L) was performed in ND96 medium (pH 7.4) at ~25°C for 1 h.

[2] = target: OAT10 (Homo sapiens, UniProt Q9Y226); assay: [14C]-urate uptake by OAT10-expressing Xenopus oocytes; details: for Inhibition of OAT10-mediated urate uptake: drug 100 μmol/L, PZA-preloaded oocytes
Chain of OAT10 (Q9Y226 whole entry): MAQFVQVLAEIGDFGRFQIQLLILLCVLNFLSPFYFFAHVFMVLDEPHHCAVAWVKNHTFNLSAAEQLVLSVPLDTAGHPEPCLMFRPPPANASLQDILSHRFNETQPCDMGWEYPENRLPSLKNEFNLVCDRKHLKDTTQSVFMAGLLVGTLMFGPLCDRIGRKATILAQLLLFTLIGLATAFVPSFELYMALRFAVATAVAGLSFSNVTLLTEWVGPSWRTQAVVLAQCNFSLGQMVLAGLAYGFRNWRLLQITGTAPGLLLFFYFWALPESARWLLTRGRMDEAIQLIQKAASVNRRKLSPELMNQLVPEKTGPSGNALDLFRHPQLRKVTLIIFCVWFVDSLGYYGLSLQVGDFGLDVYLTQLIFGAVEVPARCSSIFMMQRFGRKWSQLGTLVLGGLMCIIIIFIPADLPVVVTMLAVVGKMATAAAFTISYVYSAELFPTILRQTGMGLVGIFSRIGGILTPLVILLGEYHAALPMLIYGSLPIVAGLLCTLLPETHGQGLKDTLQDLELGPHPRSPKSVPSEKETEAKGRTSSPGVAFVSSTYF
Description: as §1
(A) Time course of [^14C]‐urate uptake by control and […] oocytes. […] Inset, western blot analysis of OAT10 protein expressed in oocytes. […] (C) [^14C]‐urate transport properties of OAT10: voltage sensitivity and Na+‐dependence was examined by replacing extracellular NaCl by KCl or LiCl. Existence of urate/Cl^− exchange mechanism or Cl^− dependence or cis‐inhibitory effects of extracellular Cl^− on was verified by [^14C]‐urate uptake via OAT10 in the absence of extracellular Cl^− ion (0 Cl^−). In 0 Cl^− bath, NaCl was replaced by Na‐gluconate (Na‐Gluc), KCl by K‐gluconate (K‐Gluc), MgCl2 by Mg‐gluconate, and CaCl2 by Ca‐gluconate. […] Data are mean ± S.E. with n = 12–15.

[3] = target: T2, SMCT1 (Homo sapiens, UniProt Q8N695); assay: [14C]-nicotinate uptake by SMCT1-expressing Xenopus oocytes; details: for pIC50: data not shown, read-out: IC50, SMCT1-mediated [14C]-nicotinate uptake
T2 sequence (Q8N695 1-610): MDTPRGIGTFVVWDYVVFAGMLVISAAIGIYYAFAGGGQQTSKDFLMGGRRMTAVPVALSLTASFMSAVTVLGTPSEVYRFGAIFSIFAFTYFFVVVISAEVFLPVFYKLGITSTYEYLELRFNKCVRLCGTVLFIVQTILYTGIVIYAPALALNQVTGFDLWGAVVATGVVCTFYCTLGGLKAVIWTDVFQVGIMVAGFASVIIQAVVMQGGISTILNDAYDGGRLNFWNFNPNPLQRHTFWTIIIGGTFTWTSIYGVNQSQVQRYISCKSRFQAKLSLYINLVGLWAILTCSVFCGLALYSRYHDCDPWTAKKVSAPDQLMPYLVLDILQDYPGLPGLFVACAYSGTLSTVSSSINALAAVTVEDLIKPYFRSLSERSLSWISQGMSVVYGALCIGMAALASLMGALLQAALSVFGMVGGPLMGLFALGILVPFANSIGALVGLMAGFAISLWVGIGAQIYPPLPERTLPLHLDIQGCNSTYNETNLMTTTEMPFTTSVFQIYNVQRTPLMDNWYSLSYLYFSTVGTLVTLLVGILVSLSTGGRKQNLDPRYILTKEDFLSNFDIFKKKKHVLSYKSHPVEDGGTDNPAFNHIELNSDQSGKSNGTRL
Experimental: as §1
(§2) Chloride ion‐dependence was also assessed; in 0 Cl^− bath, NaCl was replaced by Na‐gluconate (Na‐Gluc), KCl by K‐gluconate (K‐Gluc), MgCl2 by Mg‐gluconate, and CaCl2 by Ca‐gluconate. […] Data are mean ± S.E. with n = 12–15.

[4] = target: T3, SMCT2 (Homo sapiens, UniProt Q1EHB4); assay: [14C]-nicotinate uptake by SMCT2-expressing Xenopus oocytes; details: for pIC50: data not shown, read-out: IC50, SMCT2-mediated [14C]-nicotinate uptake
T3 sequence (Q1EHB4 1-618): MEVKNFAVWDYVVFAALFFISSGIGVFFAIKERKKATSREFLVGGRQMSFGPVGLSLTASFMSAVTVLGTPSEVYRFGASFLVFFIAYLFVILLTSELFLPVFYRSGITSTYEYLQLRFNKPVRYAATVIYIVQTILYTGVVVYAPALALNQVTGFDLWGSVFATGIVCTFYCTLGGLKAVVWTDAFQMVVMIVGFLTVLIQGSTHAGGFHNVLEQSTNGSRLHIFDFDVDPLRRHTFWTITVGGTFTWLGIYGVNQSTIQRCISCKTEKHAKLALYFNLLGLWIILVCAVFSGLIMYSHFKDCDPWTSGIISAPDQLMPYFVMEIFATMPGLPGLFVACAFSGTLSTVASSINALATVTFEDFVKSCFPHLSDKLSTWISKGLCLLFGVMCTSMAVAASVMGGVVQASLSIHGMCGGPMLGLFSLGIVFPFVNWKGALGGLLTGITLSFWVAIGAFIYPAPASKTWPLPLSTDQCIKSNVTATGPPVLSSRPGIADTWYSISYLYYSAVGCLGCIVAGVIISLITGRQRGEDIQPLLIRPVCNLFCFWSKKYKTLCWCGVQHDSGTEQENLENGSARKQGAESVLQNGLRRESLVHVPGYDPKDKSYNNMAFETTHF
Experimental: as §1, §2

SMILES | pIC50 ([1]; data not shown, read-out: IC50, OAT3-mediated urate uptake) | Inhibition of OAT3-mediated urate uptake ([1]; drug 50 μmol/L) | pIC50 ([2]; data not shown, read-out: IC50, [14C]-urate uptake by OAT10) | Inhibition of OAT10-mediated urate uptake [2] | pIC50 [3] | pIC50 [4] | Inhibition of OAT3-mediated urate uptake ([1]; drug 100 μmol/L) | pIC50 [2] | Inhibition of OAT3-mediated urate uptake ([1]; drug 1.0 mmol/L) | inhibition at 1000 µM ([2]; read-out: Inhibition of OAT10 urate transport activity) [%] | Inhibition of SMCT1 nicotinate uptake ([3]; drug 1.0 mmol/L) | Inhibition of SMCT2 nicotinate uptake ([4]; drug 1.0 mmol/L)
COc1ccc(C=CC(=O)Nc2ccccc2C(=O)O)cc1OC [tranilast, N‐(3,4‐dimethoxycinnamoyl) anthranilic acid] | ~4.82 | effectively inhibited | ~4.51 | very efficiently inhibited | ~2.96 and < 3.73 | ~3.00 and < 3.73 |  |  |  |  |  | 
CCc1oc2ccccc2c1C(=O)c1cc(Br)c(O)c(Br)c1 [benzbromarone] |  |  |  | very efficiently inhibited | ~4.30 | ~4.21 | effectively inhibited | ~4.70 |  |  |  | 
CCCN(CCC)S(=O)(=O)c1ccc(C(=O)O)cc1 [probenecid] |  |  |  |  |  |  |  |  | effectively inhibited | ~65 | significantly inhibited | remained almost unaffected
